Measurements as given in paper PMC7070407, “Moringin, A Stable Isothiocyanate from Moringa oleifera, Activates the Somatosensory and Pain Receptor TRPA1 Channel In Vitro” (Molecules, 2020).

Assays:
[1] = target: T1, rat TRPA1 (Rattus norvegicus, UniProt Q6RI86); assay: Elevation of intracellular Ca2+ (Fluo-4) in HEK-293 cells stably transfected with rat TRPA1; agonist and antagonist/desensitizing behaviour; assay type: cell-based
T1 construct: expressed in transfected cells; host or cells: HEK-293
T1 sequence (Q6RI86 whole entry): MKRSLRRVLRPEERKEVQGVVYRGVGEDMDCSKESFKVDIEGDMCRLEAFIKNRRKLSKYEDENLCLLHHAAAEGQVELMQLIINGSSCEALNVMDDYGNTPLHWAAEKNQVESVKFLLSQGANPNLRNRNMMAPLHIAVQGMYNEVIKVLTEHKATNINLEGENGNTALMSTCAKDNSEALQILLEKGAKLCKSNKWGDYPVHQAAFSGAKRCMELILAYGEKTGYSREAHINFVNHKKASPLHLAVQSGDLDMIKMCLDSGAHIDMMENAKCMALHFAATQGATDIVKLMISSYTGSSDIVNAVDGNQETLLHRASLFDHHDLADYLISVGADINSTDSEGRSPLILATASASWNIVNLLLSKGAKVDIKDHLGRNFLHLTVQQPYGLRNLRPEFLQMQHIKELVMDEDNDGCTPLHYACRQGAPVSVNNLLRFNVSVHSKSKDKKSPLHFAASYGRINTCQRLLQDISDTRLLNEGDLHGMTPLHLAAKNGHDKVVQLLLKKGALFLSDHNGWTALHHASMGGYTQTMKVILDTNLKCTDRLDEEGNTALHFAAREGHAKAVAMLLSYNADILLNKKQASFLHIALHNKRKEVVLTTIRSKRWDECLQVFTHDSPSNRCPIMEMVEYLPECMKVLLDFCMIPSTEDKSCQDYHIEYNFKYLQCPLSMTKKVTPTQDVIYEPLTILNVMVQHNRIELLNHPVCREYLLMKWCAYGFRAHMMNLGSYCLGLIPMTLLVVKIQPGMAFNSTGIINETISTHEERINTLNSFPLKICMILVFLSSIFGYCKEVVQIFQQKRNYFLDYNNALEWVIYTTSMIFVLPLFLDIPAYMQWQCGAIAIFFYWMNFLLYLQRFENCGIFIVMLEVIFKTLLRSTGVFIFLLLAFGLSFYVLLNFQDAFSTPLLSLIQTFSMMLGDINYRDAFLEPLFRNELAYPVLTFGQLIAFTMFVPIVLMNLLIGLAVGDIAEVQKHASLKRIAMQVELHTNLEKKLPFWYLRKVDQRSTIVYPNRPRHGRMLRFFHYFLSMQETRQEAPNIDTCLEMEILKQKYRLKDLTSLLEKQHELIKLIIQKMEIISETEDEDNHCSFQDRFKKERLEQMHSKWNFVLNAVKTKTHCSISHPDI
Method: Assay of rat TRPA1, TRPV2, TRPV3, TRPV4, TRPM8 or human TRPV1 mediated elevation of intracellular Ca^2+ in transfected HEK-293 cells are been performed as described. Briefly, human embryonic kidney (HEK-293) cells, stably transfected with rat TRPA1, TRPV2, TRPV3, TRPV4, TRPM8 or human TRPV1 (selected by Geneticin 600 μg mL^−1) or not transfected, were cultured in EMEM + 2 mM Glutamine + 1% Non-Essential Amino Acids (NEAA) + 10% FBS and maintained at 37 °C with 5% CO2. Stable transfections were checked by quantitative real-time polymerase chain reaction (PCR), quantitative real-time PCR was performed by an iCycler-iQ (Bio-Rad, Hercules, CA, USA) in a 20 μL reaction mixture containing the following: 10 μL iQ SYBR Green Supermix 2X (Bio-Rad), 20 ng of cDNA (calculated on the basis of the retro-transcribed RNA), and 330 nM for each primer. Optimized primers for SYBR Green analysis (and relative TaOpt) and optimum annealing temperatures were designed by Allele-Id software version 7.0 (Biosoft International, Palo Alto, CA, USA) and were synthesized (HPLC-purification grade) by MWG-Biotech AG (Ebersberg, Germany). Assays were performed in quadruplicate (maximal ΔCt of replicate samples, <0.5). Relative expression analysis, correct for PCR efficiency and normalized with respect to reference genes β-actin and glyceraldehyde 3-phosphate dehydrogenase, was performed by GENEX software (Bio-Rad). […] The day of the experiment the cells were loaded with Fluo-4 AM (4 μM in DMSO containing 0.02% Pluronic F-127) for 1 h in the dark at room temperature, rinsed and resuspended in Tyrode’s solution (145 mM NaCl, 2.5 mM KCl, 1.5 mM CaCl2, 1.2 mM MgCl2, 10 mM D-glucose, and 10 mM HEPES, pH 7.4), finally transferred to a quartz cuvette of a spectrofluorimeter (Perkin-Elmer LS50B; λEX = 488 nm, λEM = 516 nm) equipped with PTP-1 Fluorescence Peltier System (PerkinElmer Life and Analytical Sciences, Waltham, MA, USA) under continuous stirring. Cell fluorescence before and after the addition of various concentrations of test compounds and extracts were measured normalizing the effects against the response to ionomycin (4 µM). The values of the effect on [Ca^2+]i in HEK-293 cells not transfected are used as baseline and subtracted from the values obtained from transfected cells. […] The potency of the compounds (EC50 values) are determined as the concentration required to produce half-maximal increases in [Ca^2+]i. In TRPV3 assay TRPV3-expressing HEK293 cells were first sensitized with the structurally unrelated agonist 2-aminoethoxydiphenyl borate (100 μM). Antagonist/desensitizing behaviour is evaluated against the agonist of the TRP analyzed by adding the compounds directly in the quartz cuvette 5 min before stimulation of cells with the agonist. […] In order to assess functional antagonism of TRPA1 channels, AP18, 4-(4-chlorophenyl)-3-methyl-3-buten-2-one oxime […] Dose-response curve fitting (sigmoidal dose-response variable slope) and parameter estimation were performed with Graph-Pad Prism8® (GraphPad Software Inc., San Diego, CA, USA). All determinations were performed at least in triplicate.

[2] = target: T2, rat TRPV4 (Rattus norvegicus, UniProt Q9ERZ8); assay: Elevation of intracellular Ca2+ (Fluo-4) in HEK-293 cells stably transfected with rat TRPV4; assay type: cell-based
T2 construct: expressed in transfected cells; host or cells: HEK-293
T2 sequence (Q9ERZ8 whole entry): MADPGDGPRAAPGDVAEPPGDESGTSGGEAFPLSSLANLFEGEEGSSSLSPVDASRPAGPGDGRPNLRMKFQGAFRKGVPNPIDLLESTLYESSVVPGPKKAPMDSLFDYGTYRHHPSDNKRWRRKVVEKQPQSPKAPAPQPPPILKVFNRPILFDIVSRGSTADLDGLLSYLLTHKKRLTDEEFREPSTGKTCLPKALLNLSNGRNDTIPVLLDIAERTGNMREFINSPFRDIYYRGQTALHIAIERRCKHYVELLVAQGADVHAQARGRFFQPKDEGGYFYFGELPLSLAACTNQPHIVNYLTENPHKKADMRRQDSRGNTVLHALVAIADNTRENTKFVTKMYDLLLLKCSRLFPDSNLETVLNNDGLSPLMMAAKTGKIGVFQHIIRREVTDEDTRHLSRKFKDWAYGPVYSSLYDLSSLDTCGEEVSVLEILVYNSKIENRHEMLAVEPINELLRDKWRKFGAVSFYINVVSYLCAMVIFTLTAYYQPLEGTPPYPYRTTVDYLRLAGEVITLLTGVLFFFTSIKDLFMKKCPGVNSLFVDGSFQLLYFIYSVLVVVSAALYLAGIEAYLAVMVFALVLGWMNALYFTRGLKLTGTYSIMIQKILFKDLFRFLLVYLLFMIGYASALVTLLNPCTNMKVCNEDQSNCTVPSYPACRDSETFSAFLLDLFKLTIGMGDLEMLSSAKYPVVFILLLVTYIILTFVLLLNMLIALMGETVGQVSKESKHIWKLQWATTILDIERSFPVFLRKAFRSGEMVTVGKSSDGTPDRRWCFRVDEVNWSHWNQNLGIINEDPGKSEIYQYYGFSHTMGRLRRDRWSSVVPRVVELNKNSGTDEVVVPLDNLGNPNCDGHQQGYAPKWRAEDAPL
Method: (§1) Assay of rat TRPA1, TRPV2, TRPV3, TRPV4, TRPM8 or human TRPV1 mediated elevation of intracellular Ca^2+ in transfected HEK-293 cells are been performed as described. Briefly, human embryonic kidney (HEK-293) cells, stably transfected with rat TRPA1, TRPV2, TRPV3, TRPV4, TRPM8 or human TRPV1 (selected by Geneticin 600 μg mL^−1) or not transfected, were cultured in EMEM + 2 mM Glutamine + 1% Non-Essential Amino Acids (NEAA) + 10% FBS and maintained at 37 °C with 5% CO2. Stable transfections were checked by quantitative real-time polymerase chain reaction (PCR), quantitative real-time PCR was performed by an iCycler-iQ (Bio-Rad, Hercules, CA, USA) in a 20 μL reaction mixture containing the following: 10 μL iQ SYBR Green Supermix 2X (Bio-Rad), 20 ng of cDNA (calculated on the basis of the retro-transcribed RNA), and 330 nM for each primer. […] The day of the experiment the cells were loaded with Fluo-4 AM (4 μM in DMSO containing 0.02% Pluronic F-127) for 1 h in the dark at room temperature, rinsed and resuspended in Tyrode’s solution (145 mM NaCl, 2.5 mM KCl, 1.5 mM CaCl2, 1.2 mM MgCl2, 10 mM D-glucose, and 10 mM HEPES, pH 7.4), finally transferred to a quartz cuvette of a spectrofluorimeter (Perkin-Elmer LS50B; λEX = 488 nm, λEM = 516 nm) equipped with PTP-1 Fluorescence Peltier System (PerkinElmer Life and Analytical Sciences, Waltham, MA, USA) under continuous stirring. […]

[3] = tested on: not transfected HEK-293 cells; assay: Effect on [Ca2+]i in not transfected HEK-293 cells (baseline); assay type: cell-based, human
Method: Compound and extracts’ effects on intracellular Ca^2+ concentration ([Ca^2+]i) were determined using the selective intracellular fluorescent probe for Ca^2+ Fluo-4. Assay of rat TRPA1, TRPV2, TRPV3, TRPV4, TRPM8 or human TRPV1 mediated elevation of intracellular Ca^2+ in transfected HEK-293 cells are been performed as described. Briefly, human embryonic kidney (HEK-293) cells, stably transfected with rat TRPA1, TRPV2, TRPV3, TRPV4, TRPM8 or human TRPV1 (selected by Geneticin 600 μg mL^−1) or not transfected, were cultured in EMEM + 2 mM Glutamine + 1% Non-Essential Amino Acids (NEAA) + 10% FBS and maintained at 37 °C with 5% CO2. Stable transfections were checked by quantitative real-time polymerase chain reaction (PCR), quantitative real-time PCR was performed by an iCycler-iQ (Bio-Rad, Hercules, CA, USA) in a 20 μL reaction mixture containing the following: 10 μL iQ SYBR Green Supermix 2X (Bio-Rad), 20 ng of cDNA (calculated on the basis of the retro-transcribed RNA), and 330 nM for each primer. […] Cell fluorescence before and after the addition of various concentrations of test compounds and extracts were measured normalizing the effects against the response to ionomycin (4 µM). […] The potency of the compounds (EC50 values) are determined as the concentration required to produce half-maximal increases in [Ca^2+]i. […]

[4] = target: T3, rat TRPM8 (Rattus norvegicus, UniProt Q8R455); assay: Elevation of intracellular Ca2+ (Fluo-4) in HEK-293 cells stably transfected with rat TRPM8; assay type: cell-based
T3 construct: expressed in transfected cells; host or cells: HEK-293
T3 sequence (Q8R455 whole entry): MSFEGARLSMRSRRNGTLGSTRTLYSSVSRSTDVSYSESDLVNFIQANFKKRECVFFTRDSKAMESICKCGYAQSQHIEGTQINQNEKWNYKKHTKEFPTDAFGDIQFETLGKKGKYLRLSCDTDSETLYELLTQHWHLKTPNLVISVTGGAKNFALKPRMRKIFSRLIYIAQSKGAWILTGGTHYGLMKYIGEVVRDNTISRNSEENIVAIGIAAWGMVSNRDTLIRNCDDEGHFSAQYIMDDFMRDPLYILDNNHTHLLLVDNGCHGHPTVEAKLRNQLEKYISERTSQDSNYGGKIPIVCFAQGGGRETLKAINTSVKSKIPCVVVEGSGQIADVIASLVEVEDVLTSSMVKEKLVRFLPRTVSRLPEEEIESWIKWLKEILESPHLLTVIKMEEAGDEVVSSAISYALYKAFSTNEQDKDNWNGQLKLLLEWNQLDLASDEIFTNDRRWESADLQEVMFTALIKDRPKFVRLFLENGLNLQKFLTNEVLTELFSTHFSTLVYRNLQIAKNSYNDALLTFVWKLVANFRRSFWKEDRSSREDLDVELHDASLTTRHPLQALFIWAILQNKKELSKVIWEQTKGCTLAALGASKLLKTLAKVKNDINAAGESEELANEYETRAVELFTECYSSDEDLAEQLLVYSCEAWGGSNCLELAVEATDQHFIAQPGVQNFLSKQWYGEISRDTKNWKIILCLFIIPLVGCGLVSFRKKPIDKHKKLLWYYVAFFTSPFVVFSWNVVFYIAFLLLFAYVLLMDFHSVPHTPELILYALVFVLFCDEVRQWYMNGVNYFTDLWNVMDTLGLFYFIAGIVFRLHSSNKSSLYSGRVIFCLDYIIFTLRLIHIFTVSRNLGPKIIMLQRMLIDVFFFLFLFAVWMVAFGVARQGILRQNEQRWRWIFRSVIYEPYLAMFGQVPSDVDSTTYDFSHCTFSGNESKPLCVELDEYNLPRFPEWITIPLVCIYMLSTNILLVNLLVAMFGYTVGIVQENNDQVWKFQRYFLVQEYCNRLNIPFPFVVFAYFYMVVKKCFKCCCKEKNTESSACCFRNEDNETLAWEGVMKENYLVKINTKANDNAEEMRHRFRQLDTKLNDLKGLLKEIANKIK
Method: as §1

[5] = tested on: Amyotrophic Lateral Sclerosis (ALS) transgenic model; design: method as in PMID 26075221; conditions: cited from earlier work
[6] = target: T4, rat TRPV2 (Rattus norvegicus, UniProt Q9WUD2); assay: Elevation of intracellular Ca2+ (Fluo-4) in HEK-293 cells stably transfected with rat TRPV2; assay type: cell-based
T4 construct: expressed in transfected cells; host or cells: HEK-293
T4 sequence (Q9WUD2 1-761): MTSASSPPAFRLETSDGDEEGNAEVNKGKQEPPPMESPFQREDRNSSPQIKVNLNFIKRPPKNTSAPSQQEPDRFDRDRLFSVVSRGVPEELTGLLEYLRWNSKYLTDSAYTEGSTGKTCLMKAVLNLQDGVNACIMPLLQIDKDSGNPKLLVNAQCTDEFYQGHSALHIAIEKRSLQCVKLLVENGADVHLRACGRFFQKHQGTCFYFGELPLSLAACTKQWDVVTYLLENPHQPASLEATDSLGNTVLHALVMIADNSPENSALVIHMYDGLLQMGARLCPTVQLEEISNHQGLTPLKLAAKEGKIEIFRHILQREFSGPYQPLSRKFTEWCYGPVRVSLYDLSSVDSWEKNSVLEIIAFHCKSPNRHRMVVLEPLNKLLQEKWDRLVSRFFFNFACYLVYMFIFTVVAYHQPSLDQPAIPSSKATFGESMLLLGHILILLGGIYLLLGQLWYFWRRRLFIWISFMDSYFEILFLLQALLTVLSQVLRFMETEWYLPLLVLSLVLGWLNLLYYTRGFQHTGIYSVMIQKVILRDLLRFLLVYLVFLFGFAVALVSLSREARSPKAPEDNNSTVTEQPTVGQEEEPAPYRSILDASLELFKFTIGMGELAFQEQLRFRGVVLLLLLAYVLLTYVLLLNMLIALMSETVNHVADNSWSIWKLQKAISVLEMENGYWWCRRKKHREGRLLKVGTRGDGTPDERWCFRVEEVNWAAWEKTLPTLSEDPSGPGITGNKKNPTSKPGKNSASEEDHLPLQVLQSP
Method: as §1

[7] = target: T5, human TRPV1 (Homo sapiens, UniProt Q8NER1); assay: Elevation of intracellular Ca2+ (Fluo-4) in HEK-293 cells stably transfected with human TRPV1; assay type: cell-based
T5 construct: expressed in transfected cells; host or cells: HEK-293
T5 sequence (Q8NER1 whole entry): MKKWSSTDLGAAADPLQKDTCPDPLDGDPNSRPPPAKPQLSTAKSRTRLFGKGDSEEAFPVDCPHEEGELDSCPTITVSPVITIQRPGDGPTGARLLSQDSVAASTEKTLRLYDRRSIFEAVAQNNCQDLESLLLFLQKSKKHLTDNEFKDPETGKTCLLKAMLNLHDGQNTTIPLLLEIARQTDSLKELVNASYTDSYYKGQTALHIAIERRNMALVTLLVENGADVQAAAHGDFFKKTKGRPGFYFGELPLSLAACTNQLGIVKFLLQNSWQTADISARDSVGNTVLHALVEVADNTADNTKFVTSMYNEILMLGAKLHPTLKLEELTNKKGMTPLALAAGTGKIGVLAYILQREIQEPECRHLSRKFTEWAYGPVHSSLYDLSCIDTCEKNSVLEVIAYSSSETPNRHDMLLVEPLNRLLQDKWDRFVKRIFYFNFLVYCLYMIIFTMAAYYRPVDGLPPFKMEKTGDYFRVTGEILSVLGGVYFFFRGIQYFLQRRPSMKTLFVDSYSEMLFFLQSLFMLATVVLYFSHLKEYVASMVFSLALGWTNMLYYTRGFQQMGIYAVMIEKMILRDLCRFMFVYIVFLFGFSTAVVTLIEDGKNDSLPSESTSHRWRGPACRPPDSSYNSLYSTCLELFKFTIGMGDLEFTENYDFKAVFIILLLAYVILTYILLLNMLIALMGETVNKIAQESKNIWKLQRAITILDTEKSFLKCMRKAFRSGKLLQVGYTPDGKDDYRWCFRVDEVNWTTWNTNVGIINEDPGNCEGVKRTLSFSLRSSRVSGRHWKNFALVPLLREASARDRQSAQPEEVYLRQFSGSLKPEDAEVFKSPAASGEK
Method: Assay of rat TRPA1, TRPV2, TRPV3, TRPV4, TRPM8 or human TRPV1 mediated elevation of intracellular Ca^2+ in transfected HEK-293 cells are been performed as described. Briefly, human embryonic kidney (HEK-293) cells, stably transfected with rat TRPA1, TRPV2, TRPV3, TRPV4, TRPM8 or human TRPV1 (selected by Geneticin 600 μg mL^−1) or not transfected, were cultured in EMEM + 2 mM Glutamine + 1% Non-Essential Amino Acids (NEAA) + 10% FBS and maintained at 37 °C with 5% CO2. Stable transfections were checked by quantitative real-time polymerase chain reaction (PCR), quantitative real-time PCR was performed by an iCycler-iQ (Bio-Rad, Hercules, CA, USA) in a 20 μL reaction mixture containing the following: 10 μL iQ SYBR Green Supermix 2X (Bio-Rad), 20 ng of cDNA (calculated on the basis of the retro-transcribed RNA), and 330 nM for each primer. Optimized primers for SYBR Green analysis (and relative TaOpt) and optimum annealing temperatures were designed by Allele-Id software version 7.0 (Biosoft International, Palo Alto, CA, USA) and were synthesized (HPLC-purification grade) by MWG-Biotech AG (Ebersberg, Germany). Assays were performed in quadruplicate (maximal ΔCt of replicate samples, <0.5). Relative expression analysis, correct for PCR efficiency and normalized with respect to reference genes β-actin and glyceraldehyde 3-phosphate dehydrogenase, was performed by GENEX software (Bio-Rad). […] The day of the experiment the cells were loaded with Fluo-4 AM (4 μM in DMSO containing 0.02% Pluronic F-127) for 1 h in the dark at room temperature, rinsed and resuspended in Tyrode’s solution (145 mM NaCl, 2.5 mM KCl, 1.5 mM CaCl2, 1.2 mM MgCl2, 10 mM D-glucose, and 10 mM HEPES, pH 7.4), finally transferred to a quartz cuvette of a spectrofluorimeter (Perkin-Elmer LS50B; λEX = 488 nm, λEM = 516 nm) equipped with PTP-1 Fluorescence Peltier System (PerkinElmer Life and Analytical Sciences, Waltham, MA, USA) under continuous stirring. Cell fluorescence before and after the addition of various concentrations of test compounds and extracts were measured normalizing the effects against the response to ionomycin (4 µM). The values of the effect on [Ca^2+]i in HEK-293 cells not transfected are used as baseline and subtracted from the values obtained from transfected cells. […] The potency of the compounds (EC50 values) are determined as the concentration required to produce half-maximal increases in [Ca^2+]i. In TRPV3 assay TRPV3-expressing HEK293 cells were first sensitized with the structurally unrelated agonist 2-aminoethoxydiphenyl borate (100 μM). Antagonist/desensitizing behaviour is evaluated against the agonist of the TRP analyzed by adding the compounds directly in the quartz cuvette 5 min before stimulation of cells with the agonist. […]

[8] = target: T6, rat TRPV3 (Rattus norvegicus, UniProt Q4QYD9); assay: Elevation of intracellular Ca2+ (Fluo-4) in HEK-293 cells stably transfected with rat TRPV3; assay type: cell-based; conditions: TRPV3, against reference agonist thymol 100 μM
T6 construct: expressed in transfected cells; host or cells: HEK-293
T6 sequence (Q4QYD9 1-791): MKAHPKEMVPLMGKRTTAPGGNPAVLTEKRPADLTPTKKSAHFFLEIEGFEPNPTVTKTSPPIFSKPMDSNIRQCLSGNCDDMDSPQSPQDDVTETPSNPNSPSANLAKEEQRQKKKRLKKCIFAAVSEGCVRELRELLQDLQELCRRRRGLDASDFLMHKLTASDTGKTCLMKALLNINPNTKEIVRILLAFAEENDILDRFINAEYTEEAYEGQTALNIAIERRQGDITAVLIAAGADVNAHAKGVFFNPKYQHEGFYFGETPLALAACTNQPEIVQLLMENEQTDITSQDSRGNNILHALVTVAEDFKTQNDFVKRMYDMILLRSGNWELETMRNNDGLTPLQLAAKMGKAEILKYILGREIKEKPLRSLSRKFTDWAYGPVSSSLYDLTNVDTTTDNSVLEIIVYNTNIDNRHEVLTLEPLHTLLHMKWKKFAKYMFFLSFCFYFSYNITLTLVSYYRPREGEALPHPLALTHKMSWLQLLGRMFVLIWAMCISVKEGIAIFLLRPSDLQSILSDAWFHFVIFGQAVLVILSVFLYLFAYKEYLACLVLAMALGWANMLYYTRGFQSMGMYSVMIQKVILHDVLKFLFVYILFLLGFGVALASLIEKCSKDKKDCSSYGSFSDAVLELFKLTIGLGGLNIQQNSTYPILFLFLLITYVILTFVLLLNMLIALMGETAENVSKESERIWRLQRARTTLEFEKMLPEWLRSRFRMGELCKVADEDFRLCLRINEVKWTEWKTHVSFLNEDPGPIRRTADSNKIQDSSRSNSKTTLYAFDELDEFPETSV
Method: as §1

## C[C@@H]1O[C@@H](Oc2ccc(CN=C=S)cc2)[C@H](O)[C@H](O)[C@H]1O [Moringin, 4-[(α-L-rhamnosyloxy)benzyl]isothiocyanate]
[1]
  EC50: 3.14 ± 0.16 µM
  IC50: 3.6 ± 0.05 µM
[1]; TRPA1-HEK293 cells, pre-incubation with moringin 50 μM
  Effect of AITC 100 μM administered after pre-incubation with moringin: completely inhibited
[1]; rTRPA1-HEK-293, percentage of the effect on [Ca2+]i of AITC 100 µM
  Efficacy (% AITC 100 µM): 102.6 ± 1.1%
[2]
  IC50: > 100 µM
[3]
  Increase of [Ca2+]i in not transfected HEK-293 cells, % of the response in rTRPA1 HEK-293 cells: < 10%
[4]
  IC50: > 100 µM
[5]
  Delay of the disease onset: about two weeks
[6]
  IC50: > 100 µM
[7]
  EC50: 20.4 ± 1.3 µM
  IC50: > 50 µM
[7]; TRPV1
  Efficacy (% Ionomycin 4 µM): 46.8 ± 0.7%
  Potency EC50: weak
[8]
  IC50: > 100 µM
